Source: patent US5496546A, “Compositions and methods of application of reactive antiviral polyadenylic acid derivatives” (priority 1994, dated 1996)

Experiments:
HIV RT = molecular target: T1, HIV RT (Human immunodeficiency virus type 1 group M subtype B, UniProt P04585); test: Inhibition of viral reverse transcriptase in solution, HIV RT; type: biochemical
T1 construct: Reverse transcriptase samples from HIV (HIV RT)
Protocol: Reverse transcriptase samples from HIV (HIV RT) and from Moloney murine leukemia virus (MLV RT) and from avian myeloblastosis virus (AMV RT) were separately incubated with FDNP-poly[A] at 25° C. in a Tris-HCl buffer (0.1M, pH 8.2) containing 1 mM MgCl2 and 125 mM KCl and measured for RT activity. In each experiment, the selected enzyme was incubated for 10 minutes at 25° C. in an incubation mixture containing the potassium salt of the inhibitor at a given concentration. After ten minutes the incubated mixture was rapidly injected into an assay solution and further incubated for 10 min at 37° C., then precipitated with trichloroacetic acid, washed, and assayed for the radioactive polynucleotide formed by scintillation counting. The assay mixture contained 125 mM Tris-HCl (pH 8.2), 1 mM MgCl2, 125 mM KCl, 250 μM [^3 H]dTTP as the substrate and 23 nM Poly[A]-[dT],12 as the template.
Similar results were obtained with DNP-poly[A].

murine leukemia RT = murine leukemia RT (Moloney murine leukemia virus, UniProt P03355); settings: cited from earlier work
HIV-2 (wild type) = molecular target: T2, HIV-2 (wild type) (Human immunodeficiency virus type 2 subtype A, UniProt P04584); test: Inhibition of different HIV RTs, poly C-[dG]12-18 template; type: biochemical; settings: poly C-[dG]12-18, [^3 H]dGTP; approximate
T2 construct: with the RT from four different strains of the human virus: HIV-1 RT (wild type), HIV-2 (wild type)

[1] = molecular target: T3, HIV-1181c RT (Nevirapine-resistant mutant) (Human immunodeficiency virus type 1 group M subtype B, UniProt P04585, Y768C); test: as above; type: biochemical, HIV-1; settings: poly C-[dG]12-18, [^3 H]dGTP; approximate
T3 construct: HIV-1181c RT (Nevirapine-resistant mutant)

[2] = molecular target: HIV-141,215 RT (AZT-resistant mutant, Thr 215→Tyr, Met 41→Leu) (Human immunodeficiency virus type 1 group M subtype B, UniProt P04585, M628L/T802Y); test: as above; type: biochemical, HIV-1; settings: poly C-[dG]12-18, [^3 H]dGTP; approximate
HIV-1 RT (wild type) = molecular target: T4, HIV-1 RT (wild type) (Human immunodeficiency virus type 1 group M subtype B, UniProt P04585); test: as above; type: biochemical; settings: poly C-[dG]12-18, [^3 H]dGTP; approximate
T4 construct: HIV-1 RT (wild type)

T2 sequence (P04584 613-1171 limits assumed): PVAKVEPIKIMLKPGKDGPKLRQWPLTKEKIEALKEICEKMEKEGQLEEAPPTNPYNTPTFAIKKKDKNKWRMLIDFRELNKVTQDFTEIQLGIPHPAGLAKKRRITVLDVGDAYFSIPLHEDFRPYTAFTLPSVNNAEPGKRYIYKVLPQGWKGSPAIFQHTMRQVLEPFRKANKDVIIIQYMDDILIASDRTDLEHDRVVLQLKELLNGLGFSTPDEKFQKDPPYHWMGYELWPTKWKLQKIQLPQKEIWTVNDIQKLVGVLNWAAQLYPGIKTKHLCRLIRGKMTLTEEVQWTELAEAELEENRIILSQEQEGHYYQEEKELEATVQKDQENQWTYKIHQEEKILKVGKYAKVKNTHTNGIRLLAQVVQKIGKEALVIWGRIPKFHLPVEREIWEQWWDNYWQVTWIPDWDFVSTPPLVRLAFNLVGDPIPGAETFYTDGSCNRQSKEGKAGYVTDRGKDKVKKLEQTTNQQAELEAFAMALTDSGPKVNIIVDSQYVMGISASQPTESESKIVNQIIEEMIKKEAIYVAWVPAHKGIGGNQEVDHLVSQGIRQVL
T2 sequence (P04584 613-1052 partner limits assumed): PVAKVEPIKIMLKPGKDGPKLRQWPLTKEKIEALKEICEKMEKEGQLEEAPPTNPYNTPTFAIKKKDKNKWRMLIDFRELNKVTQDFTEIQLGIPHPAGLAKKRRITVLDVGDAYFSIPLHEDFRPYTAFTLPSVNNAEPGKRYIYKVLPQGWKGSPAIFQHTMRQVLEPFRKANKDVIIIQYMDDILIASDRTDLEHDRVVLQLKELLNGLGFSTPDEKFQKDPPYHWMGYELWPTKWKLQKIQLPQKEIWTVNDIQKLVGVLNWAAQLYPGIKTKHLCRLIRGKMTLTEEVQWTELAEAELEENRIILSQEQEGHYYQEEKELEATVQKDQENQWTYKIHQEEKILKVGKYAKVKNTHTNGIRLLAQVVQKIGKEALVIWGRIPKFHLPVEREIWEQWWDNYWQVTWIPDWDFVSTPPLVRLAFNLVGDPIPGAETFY

Nc1ncnc2c1ncn2[C@@H]1O[C@H](COP(=O)(O)OP(=O)(O)O)[C@@H](Oc2cc(F)c([N+](=O)[O-])cc2[N+](=O)[O-])[C@H]1O [3'-O-(5-fluoro-2,4-dinitrophenyl) ADP ether]
molar concentration required to inhibit HIV RT (HIV RT): million-fold higher molar concentration

Nc1ncnc2c1ncn2[C@@H]1O[C@H](COP(=O)(O)OP(=O)(O)OP(=O)(O)O)[C@@H](Oc2cc(F)c([N+](=O)[O-])cc2[N+](=O)[O-])[C@H]1O [the corresponding ATP ether, 3'-O-(5-fluoro-2,4-dinitrophenyl) ATP ether]
molar concentration required to inhibit HIV RT (HIV RT): million-fold higher molar concentration

poly(2-fluoroadenylic acid) [(fl^2 A)n]
IC50 (murine leukemia RT): 0.04 mg/L

polyadenylic acid (5') [Poly[A]]
IC50 of the RT, HIV-2 (wild) (HIV-2 (wild type)): no inhibitory effect
IC50 of the RT, HIV-1181C [1]: no inhibitory effect
IC50 of the RT, HIV-141,215 [2]: no inhibitory effect
IC50 of the RT, HIV-1 (wild) (HIV-1 RT (wild type)): no inhibitory effect
